These results are taken from patent publication US8236835B2, “Heterocyclic inhibitors of stearoyl-CoA desaturase” (Novartis AG, priority 2006, dated 2012).

Molecules are shown by their SMILES.

`Cc1nc(N2CCCC(Cc3ccccc3)C2=O)sc1C(=O)NCc1ccccc1` (stereo not shown) [Example 2.11, N-benzyl-2-(3-benzyl-2-oxopiperidin-1-yl)-4-methylthiazole-5-carboxamide] registered a melting point of 162 to 164 °C.

The compound `Cc1nc(N2CCCC(CCc3ccccc3)C2=O)sc1C(=O)NCc1ccccc1` (stereo not shown) [Example 3.1, N-benzyl-4-methyl-2-(2-oxo-3-phenethylpiperidin-1-yl)thiazole-5-carboxamide] displayed a melting point of 124 to 126 °C. The same measure for `Cc1nc(N2CCC(Cc3ccc(OC(F)F)cc3)C2=O)sc1C(=O)NCc1ccc(F)cc1` (stereo not shown) [Example 2.2, 2-(3-(4-(difluoromethoxy)benzyl)-2-oxopyrrolidin-1-yl)-N-(4-fluorobenzyl)-4-methylthiazole-5-carboxamide]: 143 to 145 °C. The same measure for `COc1ccc(CC2CCCN(c3nc(C)c(C(=O)NCc4ccccc4)s3)C2=O)cc1` (stereo not shown) [Example 2.9, N-benzyl-2-(3-(4-methoxybenzyl)-2-oxopiperidin-1-yl)-4-methylthiazole-5-carboxamide]: 116 to 118 °C; for `Cc1nc(N2CCC/C(=C\c3cccnc3)C2=O)sc1C(=O)NCc1ccccc1` [Example 10.2, N-benzyl-4-methyl-2-(2-oxo-3-(pyridin-3-ylmethylene)piperidin-1-yl)thiazole-5-carboxamide]: 206 to 208 °C; for `Cc1ccc(CC2CCCN(c3nc(C)c(C(=O)NCc4ccccc4)s3)C2=O)cc1` (stereo not shown) [Example 2.7, N-benzyl-4-methyl-2-(3-(4-methylbenzyl)-2-oxopiperidin-1-yl)thiazole-5-carboxamide]: 110 to 113 °C. The same measure for `Cc1nc(N2CCCC(Cc3ccc(C(F)(F)F)cc3)C2=O)sc1C(=O)NCc1cccc(F)c1` (stereo not shown) [Example 2.14, N-(3-fluorobenzyl)-4-methyl-2-(2-oxo-3-(4-(trifluoromethyl)benzyl)piperidin-1-yl)thiazole-5-carboxamide]: 177 to 178 °C. `Cc1nc(N2CCCCC2=O)sc1C(=O)NCc1ccccc1` [Example 1.2, N-benzyl-4-methyl-2-(2-oxopiperidin-1-yl)thiazole-5-carboxamide] came in with a melting point of 175 to 176 °C.

`Cc1nc(N2CCC(CC3CC3)C2=O)sc1C(=O)NCc1ccc(F)cc1` (stereo not shown) [Example 3, 2-(3-(cyclopropylmethyl)-2-oxopyrrolidin-1-yl)-N-(4-fluorobenzyl)-4-methylthiazole-5-carboxamide] displayed a melting point of 153 to 155 °C. `Cc1nc(N2CCCC(C(O)c3ccccc3)C2=O)sc1C(=O)NCc1ccccc1` (stereo not shown) [Example 10, N-benzyl-2-(3-(hydroxy(phenyl)methyl)-2-oxopiperidin-1-yl)-4-methylthiazole-5-carboxamide] showed a melting point of 74 to 75 °C.

For `Cc1nc(N2CCC(Cc3ccc(F)cc3)C2=O)sc1C(=O)NCc1cccnc1` (stereo not shown) [Example 8, 2-(3-(4-fluorobenzyl)-2-oxopyrrolidin-1-yl)-4-methyl-N-(pyridin-3-ylmethyl)thiazole-5-carboxamide], the melting point was in the range of 169 to 170 °C. The same measure for `Cc1nc(N2CCCC(Cc3cc(F)ccc3F)C2=O)sc1C(=O)NCc1ccccc1` (stereo not shown) [Example 2.10, N-benzyl-2-(3-(2,5-difluorobenzyl)-2-oxopiperidin-1-yl)-4-methylthiazole-5-carboxamide]: 144 to 145 °C; for `Cc1nc(N2CCCC2=O)sc1C(=O)NCc1ccccc1` [Example 1, N-benzyl-4-methyl-2-(2-oxopyrrolidin-1-yl)thiazole-5-carboxamide]: 222 to 224 °C. The same measure for `Cc1nc(N2C[C@@H](O)CC2=O)sc1C(=O)NCc1ccccc1` [Example 7, (S)-N-benzyl-2-(4-hydroxy-2-oxopyrrolidin-1-yl)-4-methylthiazole-5-carboxamide]: 203 to 204 °C; for `Cc1nc(N2CCCC(NCc3ccc(C(F)(F)F)cc3)C2=O)sc1C(=O)NCc1ccccc1` (stereo not shown) [Example 5.3, N-benzyl-4-methyl-2-(2-oxo-3-(4-(trifluoromethyl)benzylamino)piperidin-1-yl)thiazole-5-carboxamide]: 39 to 40 °C.

`Cc1nc(N2CCC(Cc3ccc(OC(F)(F)F)cc3)C2=O)sc1C(=O)NCc1ccc(F)cc1` (stereo not shown) [Example 2.3, N-(4-fluorobenzyl)-4-methyl-2-(2-oxo-3-(4-(trifluoromethoxy)benzyl)pyrrolidin-1-yl)thiazole-5-carboxamide] had a melting point of 165 to 166 °C. Under `Cc1nc(N2CCCC(Cc3ccc(F)cc3)C2=O)sc1C(=O)NCc1cccc(F)c1` (stereo not shown) [Example 2.13, N-(3-fluorobenzyl)-2-(3-(4-fluorobenzyl)-2-oxopiperidin-1-yl)-4-methylthiazole-5-carboxamide] stands 173 to 175 °C. The same measure for `Cc1nc(N2CCC(Cc3ccc(F)cc3)C2=O)sc1C(=O)NCc1ccc(F)cc1` (stereo not shown) [Example 2.1, N-(4-fluorobenzyl)-2-(3-(4-fluorobenzyl)-2-oxopyrrolidin-1-yl)-4-methylthiazole-5-carboxamide]: 196 to 197 °C.

On to `Cc1nc(N2CCC(Cc3ccc(C(F)(F)F)cc3)C2=O)sc1C(=O)NCc1ccc(F)cc1` (stereo not shown) [Example 2, N-(4-fluorobenzyl)-4-methyl-2-(2-oxo-3-(4-(trifluoromethyl)benzyl)pyrrolidin-1-yl)thiazole-5-carboxamide], for which the melting point lay in the range of 175 to 176 °C. The same measure for `Cc1nc(N2CCCC(Cc3ccc(C(F)(F)F)cc3)C2=O)sc1C(=O)NCc1ccccc1` (stereo not shown) [Example 2.6, N-benzyl-4-methyl-2-(2-oxo-3-(4-(trifluoromethyl)benzyl)piperidin-1-yl)thiazole-5-carboxamide]: 217 to 218 °C; for `Cc1nc(N2CCCC(NCC3CC3)C2=O)sc1C(=O)NCc1ccccc1` (stereo not shown) [Example 5.4, N-benzyl-2-(3-(cyclopropylmethylamino)-2-oxopiperidin-1-yl)-4-methylthiazole-5-carboxamide]: 125 to 126 °C; for `Cc1nc(N2CCC(Cc3ccc(OC(F)F)cc3)C2=O)sc1C(=O)NCc1ccccc1` (stereo not shown) [Example 2.5, N-benzyl-2-(3-(4-(difluoromethoxy)benzyl)-2-oxopyrrolidin-1-yl)-4-methylthiazole-5-carboxamide]: 132 to 133 °C. The same measure for `Cc1nc(N2CCCC(Cc3ccc(F)cc3)C2=O)sc1C(=O)NCc1ccccc1` (stereo not shown) [Example 2.12, N-benzyl-2-(3-(4-fluorobenzyl)-2-oxopiperidin-1-yl)-4-methylthiazole-5-carboxamide]: 154 to 155 °C. The same measure for `Cc1nc(N2CC(Cc3ccccc3)CC2=O)sc1C(=O)NCc1ccccc1` (stereo not shown) [Example 6, N-benzyl-2-(4-benzyl-2-oxopyrrolidin-1-yl)-4-methylthiazole-5-carboxamide]: 143 to 144 °C; for `Cc1nc(N2CCC(Cc3ccc(C(F)(F)F)cc3)C2=O)sc1C(=O)NCc1ccccc1` (stereo not shown) [Example 2.4, N-benzyl-4-methyl-2-(2-oxo-3-(4-(trifluoromethyl)benzyl)pyrrolidin-1-yl)thiazole-5-carboxamide]: 174 to 175 °C; for `Cc1nc(N2CCC(NCc3ccc(F)cc3)C2=O)sc1C(=O)NCc1ccc(F)cc1` (stereo not shown) [Example 5.1, N-(4-fluorobenzyl)-2-(3-(4-fluorobenzylamino)-2-oxopyrrolidin-1-yl)-4-methylthiazole-5-carboxamide]: 123 to 124 °C. `Cc1nc(N2CCC(NCCC(F)(F)F)C2=O)sc1C(=O)NCc1ccc(F)cc1` (stereo not shown) [Example 5.2, N-(4-fluorobenzyl)-4-methyl-2-(2-oxo-3-(3,3,3-trifluoropropylamino)pyrrolidin-1-yl)thiazole-5-carboxamide] showed a melting point of 142 to 143 °C. The same measure for `Cc1nc(N2CCCC(CCCc3ccccc3)C2=O)sc1C(=O)NCc1ccccc1` (stereo not shown) [Example 3.2, N-benzyl-4-methyl-2-(2-oxo-3-(3-phenylpropyl)piperidin-1-yl)thiazole-5-carboxamide]: 140 to 141 °C; for `Cc1nc(N2CCCC(Cc3cccnc3)C2=O)sc1C(=O)NCc1ccccc1` (stereo not shown) [Example 11, N-benzyl-4-methyl-2-(2-oxo-3-(pyridin-3-ylmethyl)piperidin-1-yl)thiazole-5-carboxamide]: 140 to 141 °C; for `Cc1nc(N2CCCC(Cc3cccc(F)c3)C2=O)sc1C(=O)NCc1ccccc1` (stereo not shown) [Example 2.8, N-benzyl-2-(3-(3-fluorobenzyl)-2-oxopiperidin-1-yl)-4-methylthiazole-5-carboxamide]: 170 to 171 °C. The same measure for `Cc1nc(N2CCC(Cc3ccc(OC(F)(F)F)cc3)C2=O)sc1C(=O)NCc1cccnc1` (stereo not shown) [Example 8.1, 4-methyl-2-(2-oxo-3-(4-(trifluoromethoxy)benzyl)pyrrolidin-1-yl)-N-(pyridin-3-ylmethyl)thiazole-5-carboxamide]: 158 to 160 °C; for `CCc1ccc(/C=C2\CCCN(c3nc(C)c(C(=O)NCc4ccccc4)s3)C2=O)s1` [Example 10.1, N-benzyl-2-(3-((5-ethylthiophen-2-yl)methylene)-2-oxopiperidin-1-yl)-4-methylthiazole-5-carboxamide]: 171 to 172 °C. Under `Cc1nc(N2C[C@H](O)CC2=O)sc1C(=O)NCc1ccccc1` [Example 7.1, (R)-N-benzyl-2-(4-hydroxy-2-oxopyrrolidin-1-yl)-4-methylthiazole-5-carboxamide] stands 203 to 204 °C; under `Cc1nc(N2CCC(NCCC3CC3)C2=O)sc1C(=O)NCc1ccc(F)cc1` (stereo not shown) [Example 5, 2-(3-(2-cyclopropylethylamino)-2-oxopyrrolidin-1-yl)-N-(4-fluorobenzyl)-4-methylthiazole-5-carboxamide], 151 to 152 °C.

The melting point is the temperature of the solid-liquid transition.
